What was measured:
[1] = Half-life of compound in acetate buffer (pH 4.5); format: ADME
[2] = Half-life of compound in the presence of lysosomal enzymes in the acetate buffer; format: ADME

| half-life [1] | half-life [2] | Structure (SMILES) |
| --- | --- | --- |
| 41 h | 0.8 h | CC(=O)OCC1=C(C(=O)NC(CC(C)C)C(=O)O)N2C(=O)[C@@H](NC(=O)Cc3cccs3)[C@H]2SC1 (stereo partly drawn) |
| 7 h | 7 h | CC1(C)S[C@@H]2[C@H](NC(=O)COc3ccccc3)C(=O)N2[C@H]1C(=O)N[C@@H](Cc1ccc(O)cc1)C(=O)O |
| 29 h | 1.1 h | CC(=O)OCC1=C(C(=O)O)N2C(=O)[C@@H](NC(=O)Cc3cccs3)[C@H]2SC1 [CEPHALOTHIN] |
| 17 h | 14 h | CC1(C)S[C@@H]2[C@H](NC(=O)COc3ccccc3)C(=O)N2[C@H]1C(=O)O [PENICILLIN V] |
